The results in this text go back to patent publication US6043228A, “O^6 -substituted guanine derivatives, a process for their preparation and their use in treating tumor cells” (Cancer Research Campaign Technology Limited, priority 1993, dated 2000).

One data set concerns nude mice. The data set is described as follows: Xenograft study: survival of nude mice given inactivator plus BCNU. The following applies: FIGS. 9-13. The source says:
BALB-C derived athymic male mice (nu/nu athymic) weighing between 25-35 g were obtained from the in-house breeding colony of the Paterson Institute for Cancer Research, Christie Hospital NHS Trust, Wilmslow Road, Manchester M20 9BX, England (ASU mice). The animals were housed in a sterile environment until required for experiments. In one experiment mice were obtained from Harlan-Olac, Harlan UK Limited, Shaw's Farm, Blackthorn, Bicester, Oxon. OX6 OPT, England (OLAC mice).

The next data set has as its system Raji cells. The data set is described as follows: Sensitization of Raji cells to BCNU (XTT assay). It is filed as cell-based, human. As to the method: Following a 2 hour incubation at 37° C., medium containing either increasing doses of BCNU, temozolomide or equivalent vehicle was added and the cells allowed to grow for 6 days. At this time XTT solution was added and the cells incubated for a further 4 hours at 37° C. The resulting red/orange formazan reaction product was quantified by measuring absorption at 450 nm on a microtitre platereader.

The next data set concerns the target T1, ATase in WiDr cells (Homo sapiens, UniProt P16455).
T1 construct: WiDr cells are a human colon carcinoma cell line; endogenous in cells; host or cells: WiDr
T1 sequence (P16455 1-207): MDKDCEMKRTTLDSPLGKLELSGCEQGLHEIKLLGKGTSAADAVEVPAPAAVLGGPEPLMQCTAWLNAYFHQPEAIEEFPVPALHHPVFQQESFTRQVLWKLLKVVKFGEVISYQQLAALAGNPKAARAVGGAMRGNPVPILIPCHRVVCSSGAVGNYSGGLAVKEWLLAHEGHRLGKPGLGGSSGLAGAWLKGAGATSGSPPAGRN
The data set is described as follows: Inactivation of ATase activity in mammalian cells: WiDr. It is filed as cell-based. The following applies: read-out: Inactivation of ATase in Mammalian Cells I50. The method, then:
Mammalian cells were cultured under standard conditions. For example, Raji (a human lymphoblastoid cell line from a Burkitt's lymphoma) cells were grown in suspension culture in RPMI medium supplemented with 10% horse serum. A375M cells are human melanoma cells from which the xenografts described below were established following subcutaneous injection into nude mice: WiDr cells are a human colon carcinoma cell line: Hamster+120 cells are a mitozolomide-selected subline of a Chinese hamster lung fibroblast V79 cell line called RJKO: Yoshida cells are a rat carcinosarcoma cell line and YRbus is a busulphan resistant subline thereof: XP cells are an SV40-transformed fibroblast cell line originally from the skin of a Xeroderma piamentosum patient, pHMGhAT2b cells are a clone of these cells that have been transfected with a mammalian cell expression vector containing the human ATase cDNA and pHMGla cells are a clone that have been transfected with the expression vector only (i.e. one not containing the human ATase cDNA). Cell pellets were resuspended in cold (4° C.) buffer I containing 2 μg/ml leupeptin and sonicated for 10 seconds at 12μ peak to peak distance. After cooling in ice, the cells were sonicated for a further 10 seconds at 18μ. […]

A short description of data set [1]: Sensitivity of mammalian cells to the inactivators alone: XP cells. It is filed as cell-based, human. To be noted: human, xp cells; FIG. 6; read-out: dose required for growth inhibition relative to that required for ATase inactivation. The method, then:
(§1) In order to assess the effects on cell growth alone, Xeroderma pigmentosum cells and Chinese Hamster V79 cells were exposed to increasing concentrations (up to 600 μM) of selected inactivators for 2 h at 37°. In some cases, the inactivators were allowed to undergo hydrolysis at 37° C. for 20 hours and then added to Raji cells in order to assess the extent to which the decomposition products of the agents might inhibit cell growth. After 6 days the extent of cell growth was determined as described above.

Data set [2] relates to Xeroderma pigmentosum cells. Described as above. It is filed as cell-based, human. To be noted: inactivator alone (FIG. 6). As to the method: as §1
In data set [3] the test system is human bone marrow granulocyte macrophage colony forming cells. The data set is described as follows: Sensitization of bone marrow cells to temozolomide (GM-CFC assay). Format: cell-based. The following applies: for sensitization of human bone marrow cells to temozolomide, in words: 10 μM inactivator. From the text:
For the granulocyte/macrophage colony-forming cell (GM-CFC) assay primary human bone marrow samples were obtained from patients undergoing cardiothoracic surgery. […] The colonies represented precursor cells of the granulocyte/macrophage lineage (huGM-CFC). Survival was expressed as a % of the number of colonies at zero dose temozolomide.

Data set [4] relates to Chinese Hamster V79 cells. The data set is described as follows: Sensitivity of mammalian cells to the inactivators alone: V79 cells. The following applies: inactivator alone, up to 600 μM. Format: cell-based. As to the method:
as §1

The next data set has as its system ATase. The data set is described as follows: ATase activity in tissues of nude mice after inactivator. Format: in vivo, mouse. The following applies: 10 mg/kg i.p., 24 and 48 hours (Table 10). The method, then:
ATase substrate DNA was prepared by incubation of purified calf thymes DNA with N-[^3 H]-methyl-N-nitrosuourea (18.7 Ci/mmole, Amersham International). Cell or tissue extracts (see 4.4) were incubated with [^3 H]-methylated-DNA substrate (100 μl containing 6.7 μg of DNA and 100 fmol of O^6 -[^3 H]methylguanine) at 37° C. for 60 mins. Following acid hydrolysis of the DNA as precviously described^21the [^3 H]-methylated protein was recovered and quantitated by liquid scintillation counting. […]
The mice in the tests shown in FIGS. 17 and 18 were BALB-C derived athymic male mice (nu/nu athymic) from the in-house breeding colony at the Paterson Institute for Cancer Research as described above (Animal Services Unit-ASU Mice).
Animals were given a single dose of B.4280 (10 mg/kg i.p.) and sacrificed

Entries after “also recorded” stand apart in the source; their conditions may differ.

With `Nc1nc(OCc2cccs2)c2nc[nH]c2n1` [B.4205, 0^6 -thenylguanine], the “toxicity in combination with BCNU in nude mice, in words” value in the data set on nude mice is “substantially less toxic in combination with BCNU than BeG in combination with BCNU; also recorded: very little effect”. In addition, the “sensitizing Raji cells to growth inhibitory effects of BCNU, in words” value in the data set on Raji cells (0.1 μM inactivator (FIG. 2)) is recorded as “more effective than BeG”; in the data set with Raji cells (1.0 μM inactivator (FIG. 2)), “equally effective”. The IC50 on ATase in WiDr cells turned out to be 0.02 µM. Besides, the selectivity ratio in data set [1] was no less than 100. For the same compound, the “growth inhibition / toxicity to XP cells, in words” value in data set [2] was “more sensitive than V79 cells; also recorded: toxic”. Besides, the “sensitization of human bone marrow cells to temozolomide, in words” value in data set [3] (patient D (FIG. 14)) is on record as “no differential”; in data set [3] (patients C & E (FIG. 14)), “smaller sensitization effect than O^6 -benzylguanine”. Moreover, in data set [3] (four different patient samples, 10 μM (FIG. 23)), the “sensitization of GM-CFC to cytotoxic effects of temozolomide, in words” value is on record as “only occurred in one patient”. Moreover, the “sensitization of GM-CFCs to toxic effects of temozolomide, in words” value in data set [3] (three human bone marrow samples (FIG. 14)) is reported as “little or no sensitization”. Also, in data set [4], the “growth inhibition / toxicity to V79 cells, in words” value is “no such effects were seen”.
For `Nc1nc(OCc2cc(Br)cs2)c2nc[nH]c2n1` [B.4280, O^6-(4-bromothenyl)guanine], the “recovery of ATase activity in tissues, in words” value with ATase was “activity in brain, testis and bone marrow was near to control levels by 24 hours whereas lung and spleen activity had not completely recovered by 48 hours”.
